Patent publication US20230085307A1, “PYRIDAZINONE COMPOUND AND HERBICIDE” (NISSAN CHEMICAL CORPORATION, priority 2019, published 2023)

Experiments:
[1] = tested on: Japanese bulrush; experiment: Test Example 1: herbicidal activity, application before weed generation under submerged conditions (Table 16, symbol B); type: in vivo, Japanese bulrush (Schoenoplectus juncoides); conditions: amount of applied herbicide 320 g/ha
In short: (§1)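 Submerged Wagner pots (alluvial soil, 4 cm water) sown with weed seeds and planted with 2.5-leaf rice seedlings; emulsifiable concentrate diluted in water applied to water surface on sowing day. Held in greenhouse at 25-30 °C; injury scored 0-5 by herbicidal rate after three weeks.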

[2] = tested on: oval-leafed pondweed; experiment: Test Example 1: herbicidal activity, application before weed generation under submerged conditions (Table 16, symbol C); type: in vivo, oval-leafed pondweed (Monochoria vaginalis); conditions: amount of applied herbicide 320 g/ha
In short: as §1

[3] = tested on: barnyard grass; experiment: Test Example 3: herbicidal effect by foliage application, Wagner pot (Table 18, symbol H); type: in vivo, barnyard grass (Echinochloa crus-galli); conditions: 320 g/ha
In short: (§2)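 Plants were sown in alluvial soil held under 0.1–0.5 cm standing water and grown 14 days in a greenhouse at 25–30 °C. An emulsifiable formulation, water-diluted to the set dose, was then sprayed onto the foliage, and effects were scored three weeks later using previously defined criteria.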

[4] = tested on: Chinese sprangletop; experiment: Test Example 3: herbicidal effect by foliage application, Wagner pot (Table 18, symbol D); type: in vivo, chinese sprangletop (Leptochloa chinensis); conditions: 320 g/ha
In short: as §2

[5] = tested on: rice flat sedge; experiment: Test Example 3: herbicidal effect by foliage application, Wagner pot (Table 18, symbol E); type: in vivo, rice flat sedge (Cyperus iria); conditions: 320 g/ha
In short: as §2

[6] = tested on: southern crabgrass; experiment: Test Example 4: herbicidal effect by soil treatment (Table 19, symbol F); type: in vivo, southern crabgrass (Digitaria ciliaris); conditions: amount of applied herbicide 320 g/ha
In short: (§3)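 Pre-emergence style soil spray: seeds under ~1.5 cm sterilized diluvial soil received a uniform coat of emulsion diluted to the predetermined herbicide amount. Greenhouse 25–30° C; readout at week three on previously defined criteria.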

[7] = tested on: green foxtail; experiment: Test Example 4: herbicidal effect by soil treatment (Table 19, symbol G); type: in vivo, green foxtail (Setaria viridis); conditions: amount of applied herbicide 320 g/ha
In short: as §3

[8] = tested on: barnyard grass; experiment: Test Example 4: herbicidal effect by soil treatment (Table 19, symbol H); type: in vivo, barnyard grass (Echinochloa crus-galli); conditions: amount of applied herbicide 320 g/ha
In short: as §3

[9] = tested on: windgrass; experiment: Test Example 4: herbicidal effect by soil treatment (Table 19, symbol L); type: in vivo, windgrass (Apera spica-venti); conditions: amount of applied herbicide 320 g/ha
In short: as §3

[10] = tested on: velvetleaf; experiment: Test Example 4: herbicidal effect by soil treatment (Table 19, symbol M); type: in vivo, velvetleaf (Abutilon theophrasti); conditions: amount of applied herbicide 320 g/ha
In short: as §3

[11] = tested on: redroot pigweed; experiment: Test Example 4: herbicidal effect by soil treatment (Table 19, symbol N); type: in vivo, redroot pigweed (Amaranthus retroflexus); conditions: amount of applied herbicide 320 g/ha
In short: as §3

[12] = tested on: green foxtail; experiment: Test Example 5: herbicidal effect by foliage application, plastic box (Table 20, symbol G); type: in vivo, green foxtail (Setaria viridis); conditions: foliage application, 320 g/ha, three weeks after application
In short: (§4)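 Plants were sown into sterilized diluvial soil under about 1.5 cm cover and kept in a greenhouse at 25° C. to 30° C. Fourteen days on, foliage received an even spray of the diluted emulsion. Herbicidal or crop effect was judged three weeks afterwards.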

[13] = tested on: barnyard grass; experiment: Test Example 5: herbicidal effect by foliage application, plastic box (Table 20, symbol H); type: in vivo, barnyard grass (Echinochloa crus-galli); conditions: foliage application, 320 g/ha, three weeks after application
In short: as §4

[14] = tested on: wild oat; experiment: Test Example 5: herbicidal effect by foliage application, plastic box (Table 20, symbol I); type: in vivo, wild oat (Avena fatua); conditions: foliage application, 320 g/ha, three weeks after application
In short: as §4

[15] = tested on: windgrass; experiment: Test Example 5: herbicidal effect by foliage application, plastic box (Table 20, symbol L); type: in vivo, windgrass (Apera spica-venti); conditions: foliage application, 320 g/ha, three weeks after application
In short: as §4

[16] = tested on: lambsquarters; experiment: Test Example 5: herbicidal effect by foliage application, plastic box (Table 20, symbol O); type: in vivo, lambsquarters (Chenopodium album); conditions: foliage application, 320 g/ha, three weeks after application
In short: as §4

[17] = tested on: persian speedwell; experiment: Test Example 5: herbicidal effect by foliage application, plastic box (Table 20, symbol R); type: in vivo, Persian speedwell (Veronica persica); conditions: foliage application, 320 g/ha, three weeks after application
In short: as §4

CCCCCOc1ccc2c(-c3c(O)c(C)nn(C)c3=O)c(-c3ccccc3OC)sc2c1 [3-108]
Herbicidal effect, B: Japanese bulrush [1]: 3 (Herbicidal rate of 40% or more and less than 70%) | Herbicidal effect, C: oval-leafed pondweed [2]: 5 (Herbicidal rate of 90% or more (almost completely withered)) | herbicidal effect on barnyard grass (H) [3]: 3 (Herbicidal rate of 40% or more and less than 70%) | herbicidal effect on Chinese sprangletop (D) [4]: 2 (Herbicidal rate of 20% or more and less than 40%) | herbicidal effect on rice flat sedge (E) [5]: 1 (Herbicidal rate of 5% or more and less than 20%) | F: southern crabgrass, herbicidal effect grade [6]: 0 (Herbicidal rate of 5% or less (almost no effect)) | G: green foxtail, herbicidal effect grade [7]: 0 (Herbicidal rate of 5% or less (almost no effect)) | H: barnyard grass, herbicidal effect grade [8]: 0 (Herbicidal rate of 5% or less (almost no effect)) | L: windgrass, herbicidal effect grade [9]: 0 (Herbicidal rate of 5% or less (almost no effect)) | M: velvetleaf, herbicidal effect grade [10]: 0 (Herbicidal rate of 5% or less (almost no effect)) | N: redroot pigweed, herbicidal effect grade [11]: 4 (Herbicidal rate of 70% or more and less than 90%) | G: green foxtail, herbicidal effect grade [12]: 3 (Herbicidal rate of 40% or more and less than 70%) | H: barnyard grass, herbicidal effect grade [13]: 0 (Herbicidal rate of 5% or less (almost no effect)) | I: wild oat, herbicidal effect grade [14]: 0 (Herbicidal rate of 5% or less (almost no effect)) | L: windgrass, herbicidal effect grade [15]: 0 (Herbicidal rate of 5% or less (almost no effect)) | O: lambsquarters, herbicidal effect grade [16]: 4 (Herbicidal rate of 70% or more and less than 90%) | R: persian speedwell, herbicidal effect grade [17]: 4 (Herbicidal rate of 70% or more and less than 90%)

COc1ccccc1-c1sc2cc(OC3CCCC3)ccc2c1-c1c(O)c(C)nn(C)c1=O [3-109]
Herbicidal effect, B: Japanese bulrush [1]: 5 (Herbicidal rate of 90% or more (almost completely withered)) | Herbicidal effect, C: oval-leafed pondweed [2]: 5 (Herbicidal rate of 90% or more (almost completely withered)) | herbicidal effect on barnyard grass (H) [3]: 3 (Herbicidal rate of 40% or more and less than 70%) | herbicidal effect on Chinese sprangletop (D) [4]: 4 (Herbicidal rate of 70% or more and less than 90%) | herbicidal effect on rice flat sedge (E) [5]: 4 (Herbicidal rate of 70% or more and less than 90%) | F: southern crabgrass, herbicidal effect grade [6]: 2 (Herbicidal rate of 20% or more and less than 40%) | G: green foxtail, herbicidal effect grade [7]: 4 (Herbicidal rate of 70% or more and less than 90%) | H: barnyard grass, herbicidal effect grade [8]: 1 (Herbicidal rate of 5% or more and less than 20%) | L: windgrass, herbicidal effect grade [9]: 0 (Herbicidal rate of 5% or less (almost no effect)) | M: velvetleaf, herbicidal effect grade [10]: 5 (Herbicidal rate of 90% or more (almost completely withered)) | N: redroot pigweed, herbicidal effect grade [11]: 5 (Herbicidal rate of 90% or more (almost completely withered)) | G: green foxtail, herbicidal effect grade [12]: 5 (Herbicidal rate of 90% or more (almost completely withered)) | H: barnyard grass, herbicidal effect grade [13]: 4 (Herbicidal rate of 70% or more and less than 90%) | I: wild oat, herbicidal effect grade [14]: 0 (Herbicidal rate of 5% or less (almost no effect)) | L: windgrass, herbicidal effect grade [15]: 4 (Herbicidal rate of 70% or more and less than 90%) | O: lambsquarters, herbicidal effect grade [16]: 3 (Herbicidal rate of 40% or more and less than 70%) | R: persian speedwell, herbicidal effect grade [17]: 5 (Herbicidal rate of 90% or more (almost completely withered))

COc1ccccc1-c1sc2cc(OC(F)F)ccc2c1-c1c(O)c(C)nn(C)c1=O [3-113]
Herbicidal effect, B: Japanese bulrush [1]: 3 (Herbicidal rate of 40% or more and less than 70%) | Herbicidal effect, C: oval-leafed pondweed [2]: 2 (Herbicidal rate of 20% or more and less than 40%) | herbicidal effect on barnyard grass (H) [3]: 5 (Herbicidal rate of 90% or more (almost completely withered)) | herbicidal effect on Chinese sprangletop (D) [4]: 3 (Herbicidal rate of 40% or more and less than 70%) | herbicidal effect on rice flat sedge (E) [5]: 5 (Herbicidal rate of 90% or more (almost completely withered)) | F: southern crabgrass, herbicidal effect grade [6]: 4 (Herbicidal rate of 70% or more and less than 90%) | G: green foxtail, herbicidal effect grade [7]: 5 (Herbicidal rate of 90% or more (almost completely withered)) | H: barnyard grass, herbicidal effect grade [8]: 5 (Herbicidal rate of 90% or more (almost completely withered)) | L: windgrass, herbicidal effect grade [9]: 5 (Herbicidal rate of 90% or more (almost completely withered)) | M: velvetleaf, herbicidal effect grade [10]: 4 (Herbicidal rate of 70% or more and less than 90%) | N: redroot pigweed, herbicidal effect grade [11]: 5 (Herbicidal rate of 90% or more (almost completely withered)) | G: green foxtail, herbicidal effect grade [12]: 5 (Herbicidal rate of 90% or more (almost completely withered)) | H: barnyard grass, herbicidal effect grade [13]: 5 (Herbicidal rate of 90% or more (almost completely withered)) | I: wild oat, herbicidal effect grade [14]: 4 (Herbicidal rate of 70% or more and less than 90%) | L: windgrass, herbicidal effect grade [15]: 5 (Herbicidal rate of 90% or more (almost completely withered)) | O: lambsquarters, herbicidal effect grade [16]: 5 (Herbicidal rate of 90% or more (almost completely withered)) | R: persian speedwell, herbicidal effect grade [17]: 5 (Herbicidal rate of 90% or more (almost completely withered))

COc1ccccc1-c1sc2cc(OCc3ccccc3)ccc2c1-c1c(O)c(C)nn(C)c1=O [3-118]
Herbicidal effect, B: Japanese bulrush [1]: 3 (Herbicidal rate of 40% or more and less than 70%) | Herbicidal effect, C: oval-leafed pondweed [2]: 5 (Herbicidal rate of 90% or more (almost completely withered)) | herbicidal effect on barnyard grass (H) [3]: 4 (Herbicidal rate of 70% or more and less than 90%) | herbicidal effect on Chinese sprangletop (D) [4]: 0 (Herbicidal rate of 5% or less (almost no effect)) | herbicidal effect on rice flat sedge (E) [5]: 5 (Herbicidal rate of 90% or more (almost completely withered)) | F: southern crabgrass, herbicidal effect grade [6]: 0 (Herbicidal rate of 5% or less (almost no effect)) | G: green foxtail, herbicidal effect grade [7]: 0 (Herbicidal rate of 5% or less (almost no effect)) | H: barnyard grass, herbicidal effect grade [8]: 0 (Herbicidal rate of 5% or less (almost no effect)) | L: windgrass, herbicidal effect grade [9]: 3 (Herbicidal rate of 40% or more and less than 70%) | M: velvetleaf, herbicidal effect grade [10]: 0 (Herbicidal rate of 5% or less (almost no effect)) | N: redroot pigweed, herbicidal effect grade [11]: 3 (Herbicidal rate of 40% or more and less than 70%) | G: green foxtail, herbicidal effect grade [12]: 3 (Herbicidal rate of 40% or more and less than 70%) | H: barnyard grass, herbicidal effect grade [13]: 0 (Herbicidal rate of 5% or less (almost no effect)) | I: wild oat, herbicidal effect grade [14]: 3 (Herbicidal rate of 40% or more and less than 70%) | L: windgrass, herbicidal effect grade [15]: 5 (Herbicidal rate of 90% or more (almost completely withered)) | O: lambsquarters, herbicidal effect grade [16]: 5 (Herbicidal rate of 90% or more (almost completely withered)) | R: persian speedwell, herbicidal effect grade [17]: 5 (Herbicidal rate of 90% or more (almost completely withered))

COCCOc1ccc2c(-c3c(O)c(C)nn(C)c3=O)c(-c3ccccc3OC)sc2c1 [3-121]
Herbicidal effect, B: Japanese bulrush [1]: 5 (Herbicidal rate of 90% or more (almost completely withered)) | Herbicidal effect, C: oval-leafed pondweed [2]: 5 (Herbicidal rate of 90% or more (almost completely withered)) | herbicidal effect on barnyard grass (H) [3]: 5 (Herbicidal rate of 90% or more (almost completely withered)) | herbicidal effect on Chinese sprangletop (D) [4]: 4 (Herbicidal rate of 70% or more and less than 90%) | herbicidal effect on rice flat sedge (E) [5]: 5 (Herbicidal rate of 90% or more (almost completely withered)) | F: southern crabgrass, herbicidal effect grade [6]: 5 (Herbicidal rate of 90% or more (almost completely withered)) | G: green foxtail, herbicidal effect grade [7]: 5 (Herbicidal rate of 90% or more (almost completely withered)) | H: barnyard grass, herbicidal effect grade [8]: 5 (Herbicidal rate of 90% or more (almost completely withered)) | L: windgrass, herbicidal effect grade [9]: 5 (Herbicidal rate of 90% or more (almost completely withered)) | M: velvetleaf, herbicidal effect grade [10]: 5 (Herbicidal rate of 90% or more (almost completely withered)) | N: redroot pigweed, herbicidal effect grade [11]: 5 (Herbicidal rate of 90% or more (almost completely withered)) | G: green foxtail, herbicidal effect grade [12]: 5 (Herbicidal rate of 90% or more (almost completely withered)) | H: barnyard grass, herbicidal effect grade [13]: 5 (Herbicidal rate of 90% or more (almost completely withered)) | I: wild oat, herbicidal effect grade [14]: 5 (Herbicidal rate of 90% or more (almost completely withered)) | L: windgrass, herbicidal effect grade [15]: 5 (Herbicidal rate of 90% or more (almost completely withered)) | O: lambsquarters, herbicidal effect grade [16]: 5 (Herbicidal rate of 90% or more (almost completely withered)) | R: persian speedwell, herbicidal effect grade [17]: 5 (Herbicidal rate of 90% or more (almost completely withered))
